Test results as given in patent US6881741B2 (ViroChem Pharma Inc., priority 2001, dated 2005).

Each compound was assayed against recombinant HCV NS5B (HCV RNA-dependent RNA polymerase) (Hepatitis C virus genotype 1b, UniProt P26663) (assay: biochemical). Settings: HCV polymerase activity, list of compounds of Example 27; read-out: IC50 (polymerase activity).
Chain of recombinant HCV NS5B (HCV RNA-dependent RNA polymerase) (P26663 2420-3010 limits assumed): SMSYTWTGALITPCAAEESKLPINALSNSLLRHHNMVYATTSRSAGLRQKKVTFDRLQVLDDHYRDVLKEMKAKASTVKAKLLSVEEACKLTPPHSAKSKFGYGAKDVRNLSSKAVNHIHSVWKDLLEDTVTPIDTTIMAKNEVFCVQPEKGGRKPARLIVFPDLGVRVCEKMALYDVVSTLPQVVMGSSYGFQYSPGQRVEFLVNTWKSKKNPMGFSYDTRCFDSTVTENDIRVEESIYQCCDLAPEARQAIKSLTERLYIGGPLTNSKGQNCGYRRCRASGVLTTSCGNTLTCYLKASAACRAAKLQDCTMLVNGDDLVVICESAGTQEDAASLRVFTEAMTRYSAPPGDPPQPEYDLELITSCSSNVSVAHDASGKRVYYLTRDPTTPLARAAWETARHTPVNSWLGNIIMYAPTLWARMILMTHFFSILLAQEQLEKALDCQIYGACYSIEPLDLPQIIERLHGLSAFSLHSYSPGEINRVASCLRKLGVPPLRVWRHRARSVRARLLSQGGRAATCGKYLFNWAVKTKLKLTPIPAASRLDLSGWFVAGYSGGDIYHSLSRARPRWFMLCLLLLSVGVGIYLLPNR

Row | Structure (SMILES) | IC50 [µM]
1 | C=CCN(C(=O)CCCC)c1cc(-c2ccccc2)sc1C(=O)O [Compound 399, 3-(ALLYL-PENTANOYL-AMINO)-5- PHENYL-THIOPHENE-2-CARBOXYLIC ACID] | 5 to 20
2 | C=CCN(C(=O)CCC(C)C)c1cc(-c2ccccc2)sc1C(=O)O [Compound 400, 3-[ALLYL-(4-METHYL-PENTANOYL)- AMINO]-5-PHENYL-THIOPHENE-2- CARBOXYLIC ACID] | 5 to 20
3 | C=CCN(C(=O)CC1CCCC1)c1cc(-c2ccccc2)sc1C(=O)O [Compound 401, 3-[ALLYL-(2-CYCLOPENTYL-ACETYL)- AMINO]-5-PHENYL-THIOPHENE-2- CARBOXYLIC ACID] | < 5
4 | CC1CCC(C(=O)N(c2cc(-c3ccccc3)sc2C(=O)O)C(C)C)C(O)C1 (stereo not drawn) [Compound 402, 3-[(2-HYDROXY-4-METHYL- CYCLOHEXANECARBONYL)-ISOPROPYL- AMINO]-5-PHENYL-THIOPHENE-2- CARBOXYLIC ACID] | < 5
5 | CC(c1ccccc1)N(C(=O)c1ccc(Cl)cc1Cl)c1cc(-c2ccccc2)sc1C(=O)O (stereo not drawn) [Compound 403, 3-[(2,4-DICHLORO-BENZOYL)-(1-PHENYL- ETHYL)-AMINO]-5-PHENYL-THIOPHENE- 2-CARBOXYLIC ACID] | < 5
6 | CC1=CCC(C(=O)N(c2cc(-c3ccccc3)sc2C(=O)O)C(C)C)C1 (stereo not drawn) [Compound 405, 3-[ISOPROPYL-(3-METHYL-CYCLOPENT- 3-ENECARBONYL)-AMINO]-5-PHENYL- THIOPHENE-2-CARBOXYLIC ACID] | < 5
7 | Cc1ccc(C(=O)N(c2cc(-c3cccc(C(F)(F)F)c3)sc2C(=O)O)C(C)C)c(OCc2ccccc2)c1 [Compound 406, 3-[(2-BENZLOXY-4-METHYL-BENZOYL)- ISOPROPYL-AMINO]-5-(3- TRIFLUOROMETHYL-PHENYL)- THIOPHENE-2-CARBOXYLIC ACID] | < 5
8 | CC1CCC(C(=O)N(c2cc(-c3ccccc3)sc2C(=O)O)C(C)C)C(C)C1 (stereo not drawn) [Compound 407, 3-[(2,4-DIMETHYL- CYCLOHEXANECARBONYL)-ISOPROPYL- AMINO]-5-PHENYL-THIOPHENE-2- CARBOXYLIC ACID] | < 5

Same assay, conditions: related polymerase activity (Example 27 list); read-out: IC50

Row | Structure (SMILES) | IC50 [µM]
9 | O=C(O)c1sc(-c2ccccc2)cc1N(C(=O)c1ccc(Cl)cc1Cl)C1CCN(C(=O)c2ccc(Cl)cc2Cl)CC1 [Compound 363, 3-[(2,4-DICHLORO-BENZOYL)-[1-(2,4- DICHLORO-BENZOYL)-PIPERIDIN-4-YL]- AMINO)-5-PHENYL-THIOPHENE-2- CARBOXYLIC ACID] | < 5
10 | Cc1ccc(C(=O)N(c2cc(-c3ccccc3)sc2C(=O)O)C2CCN(C(=O)OC(C)(C)C)CC2)cc1 [Compound 364, 4-[(2-CARBOXY-5-PHENYL-THIOPHEN-3- YL)-(4-METHYL-BENZOYL)-AMINO]- PIPERIDINE-1-CARBOXYLIC ACID #TERT!-BUTYL ESTER] | < 5
11 | CC(C)(C)OC(=O)N1CCC(N(C(=O)c2ccc(Cl)cc2Cl)c2cc(-c3ccccc3)sc2C(=O)O)CC1 [Compound 365, 4-[(2-CARBOXY-5-PHENYL-THIOPHEN-3- YL)-(2,4-DICHLORO-BENZOYL)-AMINO]- PIPERIDINE-1-CARBOXYLIC ACID #TERT!-BUTYL ESTER] | < 5
12 | CC(=O)c1cc(-c2cc(NS(=O)(=O)c3ccc(C)cc3C)c(C(=O)O)s2)cs1 [Compound 367, 5′-ACETYL-4-(2,4-DIMETHYL- BENZENESULFONYLAMINO)- [2,3′]BITHIOPHENYL-5-CARBOXYLIC ACID] | < 5
13 | Cc1ccccc1S(=O)(=O)Nc1cc(-c2ccc(NS(C)(=O)=O)cc2)sc1C(=O)O [Compound 369, 5-(4-METHANESULFONYLAMINO- PHENYL)-3- (TOLUENE-2-SULFONYLAMINO)- THIOPHENE- 2-CARBOXYLIC ACID] | 5 to 20
14 | Cc1cc(F)ccc1S(=O)(=O)Nc1cc(-c2ccccc2)sc1C(=O)O [Compound 370, 3-(4-FLUORO-2-METHYL- BENZENESULFONYLAMINO)-5-PHENYL- THIOPHENE-2-CARBOXYLIC ACID] | 5 to 20
15 | CC1CCCC(C(=O)N(c2cc(-c3ccccc3)sc2C(=O)O)C(C)C)C1 (stereo not drawn) [Compound 371, 3-[(3-METHYL- CYCLOHEXANECARBOXYL)-ISOPROPYL- AMINO]-5-PHENYL-THIOPHENE-2- CARBOXYLIC ACID] | > 20
16 | Cc1cc(Cl)ccc1S(=O)(=O)Nc1cc(-c2ccccc2)sc1C(=O)O [Compound 372, 3-(4-CHLORO-2-METHYL- BENZENESULFONYLAMINO)-5-PHENYL- THIOPHENE-2-CARBOXYLIC ACID] | < 5
17 | CC(C)N(C(=O)c1ccc(Cl)cc1Cl)c1cc(-c2ccc(S(C)(=O)=O)cc2)sc1C(=O)O [Compound 373, 3-[(2,4-DICHLORO-BENZOYL)- ISOPROPYL-AMINO]-5-(4- METHANESULFONYL-PHENYL)- THIOPHENE-2-CARBOXYLIC ACID] | < 5
18 | CC(C)N(C(=O)c1ccc(Cl)cc1Cl)c1cc(-c2ccc([S+](C)[O-])cc2)sc1C(=O)O (stereo not drawn) [Compound 374, 3-[(2,4-DICHLORO-BENZOYL)- ISOPROPYL-AMINO]-5-(4- METHANESULFINYL-PHENYL)- THIOPHENE-2-CARBOXYLIC ACID] | < 5
19 | CC(C)N(C(=O)c1ccc(Cl)cc1Cl)c1cc(-c2ccc(C(=O)O)cc2)sc1C(=O)O [Compound 375, 5-(4-CARBOXY-PHENYL)-3-[(2,4- DICHLORO-BENZOYL)-ISOPROPYL- AMINO]-THIOPHENE-2-CARBOXYLIC ACID] | < 5
20 | CC(C)N(C(=O)c1ccc(Cl)cc1Cl)c1cc(-c2cc3ccccc3o2)sc1C(=O)O [Compound 376, 5-BENZOFURAN-2-YL-3-[(2,4-DICHLORO- BENZOYL)-ISOPROPYL-AMINO]- THIOPHENE-2-CARBOXYLIC ACID] | < 5
21 | CC(=O)Oc1cc(C)ccc1C(=O)N(c1cc(-c2ccccc2)sc1C(=O)O)C(C)C [Compound 377, 3-[(2-ACETOXY-4-METHYL-BENZOYL)- ISOPROPYL-AMINO]-5-PHENYL- THIOPHENE-2-CARBOXYLIC ACID] | 5 to 20
22 | CC1CCCCC1C(=O)N(c1cc(-c2ccccc2)sc1C(=O)O)C(C)C (stereo not drawn) [Compound 378, 3-[ISOPROPYL-(2-METHYL- CYCLOHEXANECARBONYL)-AMINO]-5- PHENYL-THIOPHENE-2-CARBOXYLIC ACID] | 5 to 20
23 | CC1CCCCC1C(=O)N(c1cc(-c2ccccc2)sc1C(=O)O)C(C)C (stereo not drawn) [Compound 379, 3-[ISOPROPYL-(2-METHYL- CYCLOHEXANECARBONYL)-AMINO]-5- PHENYL-THIOPHENE-2-CARBOXYLIC ACID] | 5 to 20
24 | CC(C)N(C(=O)C1CCCCCC1)c1cc(-c2ccccc2)sc1C(=O)O [Compound 380, 3-(CYCLOHEPTANECARBONYL- ISOPROPYL-AMINO)-5-PHENYL- THIOPHENE-2-CARBOXYLIC ACID] | < 5

Row | Structure (SMILES) | IC50 [µM]
25 | CC1CCC(C(=O)N(c2cc(-c3cccc(C(F)(F)F)c3)sc2C(=O)O)C(C)C)CC1 (stereo not drawn) [Compound 381, 3-[ISOPROPYL-(4-METHYL- CYCLOHEXANECARBONYL)-AMINO]-5-(3- TRIFLUOROMETHYL-PHENYL)- THIOPHENE-2-CARBOXYLIC ACID] | < 5
26 | Cc1cc(N(C(=O)c2ccc(Cl)cc2Cl)C(C)C)c(C(=O)O)s1 [Compound 382, 3-[(2,4-DICHLORO-BENZOYL)- ISOPROPYL-AMINO]-5-METHYL- THIOPHENE-2-CARBOXYLIC ACID] | < 5
27 | CC1CCC(C(=O)N(c2cc(-c3cccc([N+](=O)[O-])c3)sc2C(=O)O)C(C)C)CC1 (stereo not drawn) [Compound 383, 3-[ISOPROPYL-(4-METHYL- CYCLOHEXANECARBONYL)-AMINO]-5-(3- NITRO-PHENYL)-THIOPHENE-2- CARBOXYLIC ACID] | < 5
28 | CN(C(=O)CCC1CCCC1)c1cc(-c2ccccc2)sc1C(=O)O [Compound 384, 3-[(3-CYCLOPENTYL-PROPIONYL)- METHYL-AMINO]-5-PHENYL-THIOPHENE- 2-CARBOXYLIC ACID] | < 5
29 | CCCC(=O)N(C)c1cc(-c2ccccc2)sc1C(=O)O [Compound 385, 3-(BUTYRYL-METHYL-AMINO)-5-PHENYL- THIOPHENE-2-CARBOXYLIC ACID] | 5 to 20
30 | C=CCCC(=O)N(C)c1cc(-c2ccccc2)sc1C(=O)O [Compound 386, 3-(METHYL-PENT-4-ENOYL-AMINO)-5- PHENYL-THIOPHENE-2-CARBOXYLIC ACID] | 5 to 20
31 | CCCCC(=O)N(C)c1cc(-c2ccccc2)sc1C(=O)O [Compound 389, 3-(METHYL-PENTANOYL-AMINO)-5- PHENYL-THIOPHENE-2-CARBOXYLIC ACID] | < 5
32 | CC(C)CCC(=O)N(C)c1cc(-c2ccccc2)sc1C(=O)O [Compound 390, 3-[METHYL-(4-METHYL-PENTANOYL)- AMINO]-5-PHENYL-THIOPHENE-2- CARBOXYLIC ACID] | 5 to 20
33 | CCN(C(=O)C1CCCC1)c1cc(-c2ccccc2)sc1C(=O)O [Compound 391, 3-(CYCLOPENTANECARBONYL-ETHYL- AMINO)-5-PHENYL-THIOPHENE-2- CARBOXYLIC ACID] | 5 to 20
34 | CCN(C(=O)CCC1CCCC1)c1cc(-c2ccccc2)sc1C(=O)O [Compound 392, 3-[(3-CYCLOPENTYL-PROPIONYL)- ETHYL-AMINO]-5-PHENYL-THIOPHENE-2- CARBOXYLIC ACID] | < 5
35 | CCN(C(=O)C1CCC1)c1cc(-c2ccccc2)sc1C(=O)O [Compound 393, 3-(CYCLOBUTANECARBONYL-ETHYL- AMINO)-5-PHENYL-THIOPHENE-2- CARBOXYLIC ACID] | 5 to 20
36 | C/C=C/C(=O)N(CC)c1cc(-c2ccccc2)sc1C(=O)O [Compound 394, 3-(BUT-2-ENOYL-ETHYL-AMINO)-5- PHENYL-THIOPHENE-2-CARBOXYLIC ACID] | 5 to 20
37 | C=Cc1cc(C)ccc1C(=O)N(c1cc(-c2ccccc2)sc1C(=O)O)C(C)C [Compound 395, 3-[ISOPROPYL-(4-METHYL-2-VINYL- BENZOYL)-AMINO]-5-PHENYL- THIOPHENE-2-CARBOXYLIC ACID] | 5 to 20
38 | C=CCN(C(=O)CCCCC)c1cc(-c2ccccc2)sc1C(=O)O [Compound 397, 3-(ALLYL-HEXANOYL-AMINO)-5-PHENYL- THIOPHENE-2-CARBOXYLIC ACID] | 5 to 20
39 | C=CCN(C(=O)C1CCC1)c1cc(-c2ccccc2)sc1C(=O)O [Compound 398, 3-(ALLYL-CYCLOBUTANECARBONYL- AMINO)-5-PHENYL-THIOPHENE-2- CARBOXYLIC ACID] | > 20
